The source of these data is BindingDB's records for doi:10.1021/jm030165t (National Center For Genetic Engineering and Biotechnology …, 2004).

Structures are written as SMILES.

A short description of experiment [1]: In vitro anti-plasmodial activity against Plasmodium falciparum dihydrofolate reductase N51I/C59R/S108N (W2).
Experiment [2] can be described thus: In vitro anti-plasmodial activity against Plasmodium falciparum dihydrofolate reductase C59R/S108N (K1CB1) mutant.
Experiment [3] can be described thus: In vitro anti-plasmodial activity against Plasmodium falciparum dihydrofolate reductase C59R+S108N/I164L (Csl-2) mutant.
The nature of experiment [4]: In vitro anti-plasmodial activity against Plasmodium falciparum dihydrofolate reductase A16V/S108T (T9/94RC17) mutant.
In experiment [5] the target is Bifunctional dihydrofolate reductase-thymidylate synthase (Plasmodium falciparum (isolate K1 / Thailand), UniProt P13922). As to the kind of experiment: Binding affinity towards wild-type dihydrofolate reductase of Plasmodium falciparum.
A short description of experiment [6]: In vitro anti-plasmodial activity against Plasmodium falciparum dihydrofolate reductase wild type (TM4/8.2).
Experiment [7] is described as follows: In vitro anti-plasmodial activity against Plasmodium falciparum dihydrofolate reductase […]/C59R/S108N/I164L (V1/S) mutant.

Bifunctional dihydrofolate reductase-thymidylate synthase, sequence (P13922 whole entry): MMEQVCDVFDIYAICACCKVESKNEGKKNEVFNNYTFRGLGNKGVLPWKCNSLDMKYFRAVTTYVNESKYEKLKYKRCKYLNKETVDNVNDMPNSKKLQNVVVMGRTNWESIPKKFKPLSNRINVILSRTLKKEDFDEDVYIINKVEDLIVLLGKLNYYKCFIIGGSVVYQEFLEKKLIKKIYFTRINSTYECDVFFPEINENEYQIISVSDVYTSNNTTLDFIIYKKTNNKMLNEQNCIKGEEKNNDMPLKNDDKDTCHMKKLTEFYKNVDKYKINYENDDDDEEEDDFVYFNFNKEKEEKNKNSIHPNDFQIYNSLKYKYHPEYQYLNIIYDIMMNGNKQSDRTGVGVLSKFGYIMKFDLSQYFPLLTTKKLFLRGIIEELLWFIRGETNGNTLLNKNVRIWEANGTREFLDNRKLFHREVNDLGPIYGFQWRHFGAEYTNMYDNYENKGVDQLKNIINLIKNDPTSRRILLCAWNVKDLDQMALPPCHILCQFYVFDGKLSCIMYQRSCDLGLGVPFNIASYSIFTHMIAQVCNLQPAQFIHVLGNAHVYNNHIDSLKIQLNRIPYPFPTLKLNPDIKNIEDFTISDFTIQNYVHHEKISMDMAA

Usually IC50 stands for the concentration needed to halve the response being measured. Lower therefore signals higher potency. The term Ki denotes a measure of affinity in units of concentration, obtained from inhibition or displacement. A low value points to a stronger hold on the target. As for `NC1=NC(c2cccc(Oc3ccc(Cl)cc3)c2)N(c2cccc(Cl)c2)C(N)=N1` (stereo not drawn) [6-(3-(4-chlorophenoxy)phenyl)-1-(3-chlorophenyl)-1,6-dihydro-1,3,5-triazine-2,4-diamine], the IC50 is 2000 nM in experiment [1]; 2600 nM in experiment [2]; 3100 nM in experiment [3]; 390 nM in experiment [4]; 3900 nM in experiment [6]; 3200 nM in experiment [7]. Affinity in experiment [5] was put at a Ki of 1.3 nM.

Consider `NC1=NC(c2cccc(Oc3cc(Cl)cc(Cl)c3)c2)N(c2cccc(Cl)c2)C(N)=N1` (stereo not drawn) [1-(3-Chloro-phenyl)-6-[3-(3,5-dichloro-phenoxy)-phenyl]-1,6-dihydro-[1,3,5]triazine-2,4-diamine], for which the IC50 in experiment [1] came out at 3400 nM; in experiment [2], 3100 nM; in experiment [3], 3900 nM; in experiment [4], 50 nM; in experiment [6], 5500 nM; in experiment [7], 3900 nM. In experiment [5], this compound registered a Ki of 1.8 nM.

In the case of `NC1=NC(c2ccc(Oc3ccccc3)cc2)N(c2cccc(Cl)c2)C(N)=N1` (stereo not drawn) [1-(3-chlorophenyl)-6-(4-phenoxyphenyl)-1,6-dihydro-1,3,5-triazine-2,4-diamine], the IC50 in experiment [1] came out at 740 nM; in experiment [2] it was 3100 nM; in experiment [3], 3300 nM; in experiment [4], 4 nM; in experiment [6], 650 nM; in experiment [7] it was 3300 nM. Also, the affinity in experiment [5], expressed as Ki, was 0.7 nM.

Turning to `NC1=NC(c2cccc(Oc3cccc(C(F)(F)F)c3)c2)N(c2cccc(Cl)c2)C(N)=N1` (stereo not drawn) [1-(3-chlorophenyl)-6-(3-(3-(trifluoromethyl)phenoxy)phenyl)-1,6-dihydro-1,3,5-triazine-2,4-diamine], the concentration for half-maximal inhibition (IC50) amounted to 2800 nM in experiment [1]; 2800 nM in experiment [2]; 3400 nM in experiment [3]; 180 nM in experiment [4]; 3200 nM in experiment [6]; 3200 nM in experiment [7]. For the same compound, the inhibition constant Ki in experiment [5] was determined as 2.7 nM.
